Assay results taken from patent US12215085B2 (priority 2019, dated 2025).
Structures can show the parent of a compound that is named as a salt. Marks after values point to notes of the source that are not given here.

Tests used:
[1] = system: rats with beta-amyloid induced senile dementia; assay: Water maze test, beta-amyloid induced senile dementia rats; type: in vivo, rat; details: for adopted strategy for reaching the platform (the peripheral type and the random type %) / orientation angle for reaching the platform / speed for reaching the platform / swimming path length for reaching the platform / time for reaching the platform: 1.75 mg/kg intragastric; for orientation angle for reaching the platform / speed for reaching the platform / swimming path length for reaching the platform / time for reaching the platform: x ± s
[2] = system: rats with beta-amyloid induced senile dementia; assay: Step-down test, beta-amyloid induced senile dementia rats; type: in vivo, rat; details: donepezil hydrochloride 1.75 mg/kg, P<0.05
[3] = system: rats with common carotid artery occlusion-induced vascular dementia; assay: Water maze test, common carotid artery occlusion-induced vascular dementia rats; type: in vivo, rat; details: for orientation angle for reaching the platform / speed for reaching the platform / swimming path length for reaching the platform / time for reaching the platform: x ± s
Description: (§1) A rat blood vessel dementia model was made according to the references [ZHAO Xian-lin, FANG Xiu-bin, LI Dong-pei. Establishment of Vascular Dementia Model in Rats, J Chin Med Univ, 2002, 31 (3): 166-168; WANG Yong-yan, Zhang Bo-li, Editor-in-chief. Modern Chinese Medicine Clinic and Research on Vascular Dementia, People's Medical Publishing House, October 2003, First Version 214]: Chloral hydrate 0.4 g/kg was intraperitoneally injected for anesthetizing rats, and bilateral common carotid arteries were isolated and ligated. The animals were fed for 16 weeks, divided into groups on the last 7 days, and administered. The normal control group and the model group were administrated through the intragastric route with distilled water by 0.5 ml/100 g, the positive control group was administrated through the intragastric route with donepezil hydrochloride by 1.75 mg/kg (equivalent to 3.85 times the clinical daily dosage of 5 mg/70 kg), the low, medium and high-dose groups of Crystal Form A of octahydroaminoacridine succinate were administrated through the intragastric route with Crystal Form A of octahydroaminoacridine succinate by 0.7, 1.4 and 2.8 mg/kg (equivalent to 0.96, 1.92 and 3.85 times the clinical daily dosage of 8 mg/70 kg). The water maze test and the step-down test were carried out after continuous administration for 7 days, and the administration was continued during the test period. The water maze test was continuously performed for 7 days, in the first 6 days, in four different water entry points of quadrants 1, 2, 3 and 4, the time, the swimming path length, the orientation angle and the average speed of the rat reaching the platform were measured, meanwhile, the strategy for reaching the platform adopted by rats was observed, on the 7th day, the platform was removed, the number of rats crossing the platform in 2 minutes, the residence time in the platform area, the residence time in the platform quadrants, the percentage of the swimming path length in the platform area quadrants to the total swimming path length, the average speed and the orientation angle were measured. After the water maze test was finished, the step-down test was performed, and the number of electric shocks (or called as the error number) received by each rat within 5 minutes was recorded as the learning performance. The test was performed again after 24 hours, namely, the memory retention test, and the latent period for stepping-down the platform for the first time and the error number in five minutes were recorded. After the step-down test was finished, the brain was taken quickly for pathological examination, and the pathological changes of the hippocampus and the cortex were observed.

[4] = system: rats with common carotid artery occlusion-induced vascular dementia; assay: Step-down test, common carotid artery occlusion-induced vascular dementia rats; type: in vivo, rat
Description: as §1

[5] = system: cholinesterase B (Homo sapiens); assay: In vitro inhibition of cholinesterase B; type: biochemical; details: in vitro tests; multiple of rivastigmine
Chain of cholinesterase B (Homo sapiens) (P22303 32-614): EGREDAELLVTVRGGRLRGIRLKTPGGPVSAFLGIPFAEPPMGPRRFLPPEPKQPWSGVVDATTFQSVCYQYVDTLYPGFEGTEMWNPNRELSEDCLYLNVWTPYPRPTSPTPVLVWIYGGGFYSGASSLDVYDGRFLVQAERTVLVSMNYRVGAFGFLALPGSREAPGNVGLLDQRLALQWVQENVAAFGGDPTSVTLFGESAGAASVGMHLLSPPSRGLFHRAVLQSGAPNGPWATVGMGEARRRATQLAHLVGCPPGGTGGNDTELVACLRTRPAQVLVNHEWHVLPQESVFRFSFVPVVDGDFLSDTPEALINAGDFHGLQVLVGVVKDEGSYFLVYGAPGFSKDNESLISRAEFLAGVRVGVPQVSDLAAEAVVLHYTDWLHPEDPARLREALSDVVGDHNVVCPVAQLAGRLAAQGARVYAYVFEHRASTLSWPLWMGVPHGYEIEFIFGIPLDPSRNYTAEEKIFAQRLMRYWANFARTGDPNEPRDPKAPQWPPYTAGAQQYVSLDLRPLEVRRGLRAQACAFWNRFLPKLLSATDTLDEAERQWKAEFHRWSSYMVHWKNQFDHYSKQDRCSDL

cholinesterase D = cholinesterase D (Homo sapiens, UniProt P06276); type: biochemical; details: in vitro tests; multiple of rivastigmine
Chain of cholinesterase D (P06276 29-602): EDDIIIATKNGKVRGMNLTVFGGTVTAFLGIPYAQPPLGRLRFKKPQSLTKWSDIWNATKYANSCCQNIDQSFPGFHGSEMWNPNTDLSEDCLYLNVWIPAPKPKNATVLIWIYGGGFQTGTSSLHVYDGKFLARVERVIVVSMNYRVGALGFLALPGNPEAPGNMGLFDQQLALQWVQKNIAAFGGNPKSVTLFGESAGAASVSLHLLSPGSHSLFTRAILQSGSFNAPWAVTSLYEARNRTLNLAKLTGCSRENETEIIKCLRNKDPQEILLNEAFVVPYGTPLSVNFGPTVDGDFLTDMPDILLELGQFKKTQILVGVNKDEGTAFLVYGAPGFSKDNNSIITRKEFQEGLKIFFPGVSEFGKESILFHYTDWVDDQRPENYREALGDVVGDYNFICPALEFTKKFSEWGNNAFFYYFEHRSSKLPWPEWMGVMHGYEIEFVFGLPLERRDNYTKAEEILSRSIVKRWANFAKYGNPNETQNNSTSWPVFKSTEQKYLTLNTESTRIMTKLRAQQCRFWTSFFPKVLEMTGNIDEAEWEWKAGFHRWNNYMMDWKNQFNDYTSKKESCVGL

[6] = donepezil hydrochloride 1.75 mg/kg, Day 1 to Day 6
[7] = donepezil hydrochloride 1.75 mg/kg, Day 2, P<0.05
[8] = donepezil hydrochloride 1.75 mg/kg, Day 7
[9] = donepezil hydrochloride 1.75 mg/kg, Day 7, P<0.05
[10] = donepezil hydrochloride 1.75 mg/kg, P<0.05 or P<0.01
[11] = step-down method, 1.75 mg/kg intragastric, x ± s

COc1cc2c(cc1OC)C(=O)C(CC1CCN(Cc3ccccc3)CC1)C2 (centres unmarked) [Positive control group, donepezil hydrochloride]
adopted strategy for reaching the platform (the peripheral type and the random type %) ([1]; Day 1): 97.50% | orientation angle for reaching the platform ([1]; Day 1): 75.41 ± 22.31 ° | speed for reaching the platform ([1]; Day 1): 16.03 ± 4.22 cm/s | swimming path length for reaching the platform ([1]; Day 1): 1029.43 ± 453.12 cm | time for reaching the platform ([1]; Day 1): 72.43 ± 30.97 s | adopted strategy for reaching the platform (the peripheral type and the random type %) ([1]; Day 2): 75.00% | orientation angle for reaching the platform ([1]; Day 2): 50.14 ± 23.02 ° | speed for reaching the platform ([1]; Day 2): 20.78 ± 5.83 cm/s | swimming path length for reaching the platform ([1]; Day 2): 762.34 ± 562.06 cm | time for reaching the platform ([1]; Day 2): 38.98 ± 33.812 s | adopted strategy for reaching the platform (the peripheral type and the random type %) ([1]; Day 3): 77.50% | orientation angle for reaching the platform ([1]; Day 3): 52.85 ± 27.04 ° | speed for reaching the platform ([1]; Day 3): 19.15 ± 4.64 cm/s | swimming path length for reaching the platform ([1]; Day 3): 572.83 ± 576.82 cm | time for reaching the platform ([1]; Day 3): 34.41 ± 37.35 s | adopted strategy for reaching the platform (the peripheral type and the random type %) ([1]; Day 4): 62.50** % | orientation angle for reaching the platform ([1]; Day 4): 46.37 ± 17.86 ° | speed for reaching the platform ([1]; Day 4): 22.07 ± 8.05 cm/s | swimming path length for reaching the platform ([1]; Day 4): 312.04 ± 316.86 cm | time for reaching the platform ([1]; Day 4): 29.32 ± 39.89 s | adopted strategy for reaching the platform (the peripheral type and the random type %) ([1]; Day 5): 67.50** % | orientation angle for reaching the platform ([1]; Day 5): 50.54 ± 24.98 ° | speed for reaching the platform ([1]; Day 5): 19.67 ± 3.94 cm/s | swimming path length for reaching the platform ([1]; Day 5): 495.72 ± 380.99 cm | time for reaching the platform ([1]; Day 5): 29.16 ± 24.95 s | adopted strategy for reaching the platform (the peripheral type and the random type %) ([1]; Day 6): 62.50* % | orientation angle for reaching the platform ([1]; Day 6): 44.21 ± 34.00 ° | speed for reaching the platform ([1]; Day 6): 18.28 ± 5.12 cm/s | swimming path length for reaching the platform ([1]; Day 6): 413.33 ± 483.35 cm | time for reaching the platform ([1]; Day 6): 28.99 ± 35.61 s | swimming speed vs model group [1, 6]: not obviously changed | latent period for reaching the platform vs model group ([1]; donepezil hydrochloride 1.75 mg/kg, Day 1 to Day 6, no statistical significance): shortened trend | orientation angle vs model group [1, 7]: obviously decreased | swimming path length for reaching the platform vs model group ([1]; donepezil hydrochloride 1.75 mg/kg, Day 4, P<0.05): obviously shortened | average speed and orientation angle vs model group [1, 8]: not obviously changed | number of crossing the platform vs model group [1, 9]: obviously increased | percentage of the swimming path length in the platform area quadrants to the total swimming path length vs model group [1, 9]: obviously increased | residence time in the platform area vs model group [1, 9]: obviously increased | residence time in the platform quadrants within 2 minutes vs model group [1, 9]: obviously increased | conversion from the peripheral type and the random type to the tendency type and the linear type in the strategy for looking for the platform [1, 10]: obviously increased | step-down error number vs model group ([2]; Day 1 and Day 2): obviously reduced | error latency vs model group ([2]; Day 2): obviously prolonged | adopted strategy for reaching the platform (the peripheral type and the random type %) ([3]; Day 1, 1.75 mg/kg intragastric): 65.00* % | orientation angle for reaching the platform ([3]; Day 1, 1.75 mg/kg intragastric): 58.85 ± 15.35 ° | speed for reaching the platform ([3]; Day 1, 1.75 mg/kg intragastric): 21.15 ± 5.56 cm/s | swimming path length for reaching the platform ([3]; Day 1, 1.75 mg/kg intragastric): 1105.00 ± 578.29 cm | time for reaching the platform ([3]; Day 1, 1.75 mg/kg intragastric): 58.42 ± 23.42 s | adopted strategy for reaching the platform (the peripheral type and the random type %) ([3]; Day 2, 1.75 mg/kg intragastric): 62.50% | orientation angle for reaching the platform ([3]; Day 2, 1.75 mg/kg intragastric): 61.54 ± 17.41 ° | speed for reaching the platform ([3]; Day 2, 1.75 mg/kg intragastric): 22.68 ± 5.82 cm/s | swimming path length for reaching the platform ([3]; Day 2, 1.75 mg/kg intragastric): 579.08 ± 316.12 cm | time for reaching the platform ([3]; Day 2, 1.75 mg/kg intragastric): 33.96 ± 17.06 s | adopted strategy for reaching the platform (the peripheral type and the random type %) ([3]; Day 3, 1.75 mg/kg intragastric): 62.50* % | orientation angle for reaching the platform ([3]; Day 3, 1.75 mg/kg intragastric): 48.94 ± 13.42 ° | speed for reaching the platform ([3]; Day 3, 1.75 mg/kg intragastric): 21.19 ± 3.15 cm/s | swimming path length for reaching the platform ([3]; Day 3, 1.75 mg/kg intragastric): 606.25 ± 279.18 cm | time for reaching the platform ([3]; Day 3, 1.75 mg/kg intragastric): 30.17 ± 14.50 s | adopted strategy for reaching the platform (the peripheral type and the random type %) ([3]; Day 4, 1.75 mg/kg intragastric): 67.50% | orientation angle for reaching the platform ([3]; Day 4, 1.75 mg/kg intragastric): 58.94 ± 22.56 ° | speed for reaching the platform ([3]; Day 4, 1.75 mg/kg intragastric): 25.79 ± 9.79 cm/s | swimming path length for reaching the platform ([3]; Day 4, 1.75 mg/kg intragastric): 615.78 ± 385.17 cm | time for reaching the platform ([3]; Day 4, 1.75 mg/kg intragastric): 23.92 ± 12.45 s | adopted strategy for reaching the platform (the peripheral type and the random type %) ([3]; Day 5, 1.75 mg/kg intragastric): 50.00% | orientation angle for reaching the platform ([3]; Day 5, 1.75 mg/kg intragastric): 49.64 ± 17.65 ° | speed for reaching the platform ([3]; Day 5, 1.75 mg/kg intragastric): 24.88 ± 8.76 cm/s | swimming path length for reaching the platform ([3]; Day 5, 1.75 mg/kg intragastric): 586.80 ± 405.09 cm | time for reaching the platform ([3]; Day 5, 1.75 mg/kg intragastric): 21.94 ± 11.16 s | adopted strategy for reaching the platform (the peripheral type and the random type %) ([3]; Day 6, 1.75 mg/kg intragastric): 47.50** % | orientation angle for reaching the platform ([3]; Day 6, 1.75 mg/kg intragastric): 53.54 ± 19.68 ° | speed for reaching the platform ([3]; Day 6, 1.75 mg/kg intragastric): 21.02 ± 6.67 cm/s | swimming path length for reaching the platform ([3]; Day 6, 1.75 mg/kg intragastric): 348.06 ± 202.65 cm | time for reaching the platform ([3]; Day 6, 1.75 mg/kg intragastric): 17.87 ± 12.66 s | Average speed ([3]; Day 7, 1.75 mg/kg intragastric): 24.60 ± 10.18 cm/s | Number of crossing the platform ([3]; Day 7, 1.75 mg/kg intragastric): 9.40 ± 5.16 | Orientation angle ([3]; Day 7, 1.75 mg/kg intragastric): 9.40 ± 5.17 ° | Swimming path length in the platform area/total swimming path length × 100% ([3]; Day 7, 1.75 mg/kg intragastric): 33.02 ± 9.98% | Time in the platform area ([3]; Day 7, 1.75 mg/kg intragastric): 3.06 ± 2.24 s | Time in the platform quadrants ([3]; Day 7, 1.75 mg/kg intragastric): 42.21 ± 12.71 s | orientation angle and swimming speed vs model group [3, 6]: not obviously changed | swimming path length for reaching the platform vs model group ([3]; donepezil hydrochloride 1.75 mg/kg, Day 2, Day 3 and Day 6, P<0.05): obviously shortened | latent period for reaching the platform vs model group ([3]; donepezil hydrochloride 1.75 mg/kg, Day 5 and Day 6, P<0.05 or P<0.01): obviously shortened | average speed and orientation angle vs model group [3, 8]: not obviously changed | residence time in the platform quadrants within 2 minutes vs model group [3, 9]: obviously increased | number of crossing the platform, residence time in the platform area, and percentage of the swimming path length in the platform area quadrants to the total swimming path length vs model group ([3]; donepezil hydrochloride 1.75 mg/kg, Day 7, no statistical significance): increased trend | conversion from the peripheral type or the random type to the tendency type or the linear type in the strategy for looking for the platform [3, 10]: obviously increased | step-down error number vs model group ([4]; donepezil hydrochloride 1.75 mg/kg, Day 1 and Day 2, P<0.05): obviously reduced | error latency vs model group [4, 7]: obviously prolonged | Day 1, Error number [4, 11]: 5.40 ± 3.06 | Day 2, Error latency [4, 11]: 244.10 ± 77.83 s | Day 2, Error number [4, 11]: 1.10 ± 1.28

Nc1c2c(nc3c1CCCC3)CCCC2.O=C(O)CCC(=O)O [octahydroaminoacridine succinate, 9-amino-1,2,3,4,5,6,7,8-octahydroacridine succinate]
inhibiting ability to cholinesterase B relative to rivastigmine [5]: 500 times | inhibiting ability to cholinesterase D relative to rivastigmine (cholinesterase D): 2000 times
